{"source": "patent US20120053208A1", "about": "(THE OHIO STATE UNIVERSITY RESEARCH FOUNDATION, priority 2009, published 2012)", "key": {"[1]": {"test_system": "downstream targets of STAT3", "test": "Expression of downstream targets of STAT3 by immunoblot", "assay_type": "cell-based, human", "conditions": "both breast cancer cell lines (MDA-MB-231, MDA-MB-468)", "description": "(§1) The cell extract were processed for immunoblotting using specific antibodies. GAPDH was used as loading control.\n(§2) The cell extracts were processed for immunoblotting using specific antibodies. GAPDH was used as loading control.\n(§3) GAPDH was used as loading control.\nas §2"}, "[2]": {"test_system": "STAT3 DNA binding activity", "test": "STAT3 DNA binding activity (STAT3 Transcription Factor Kit)", "assay_type": "cell-based, human", "conditions": "MDA-MB-231 cells; 10 μM, 24 h", "experimental": "Cells were treated with the compounds or DMSO (control) for 24 h. The cell extract were analyzed for STAT3 binding activity using STAT3 Transcription Factor Kit.\n(§4) Cells were treated with FLLL31 (10 μM) or DSMO (control) for 24 h. The cell extracts were analyzed for STAT3 DNA binding activity using STAT3 and STAT1 Transcription Factor Kits."}, "[3]": {"test_system": "STAT3 dependent luciferase activity", "test": "STAT3-dependent transcriptional luciferase activity (pLucTKS3)", "assay_type": "cell-based, human", "conditions": "MDA-MB-231 cells stably transfected with pLucTKS3; 1-10 μmol/L, 24 hours", "experimental": "Cells were incubated with the compounds for 24 h and were then harvested for luciferase activity analysis.\nExpression of luciferase is thus contingent upon the phosphorylation and activation of STAT3."}, "[4]": {"test_system": "eight cancer cell lines with elevated levels of STAT3 phosphorylation", "test": "Anti-proliferative activity in a panel of eight cancer cell lines", "assay_type": "cell-based, human"}, "[5]": {"test_system": "cells with persistent expression of p-STAT3", "test": "Apoptosis (cleaved caspase-3 immunoblot) in cancer cells", "assay_type": "cell-based, human", "conditions": "24 h", "description": "as §1, §2, §3, §2, §2"}, "[6]": {"test_system": "ERK1/2, PKC-δ, mTOR, p70S6K, and AKT phosphorylation", "test": "Phosphorylation of other kinases by immunoblot in breast cancer cells", "assay_type": "cell-based, human", "conditions": "MDA-MB-231 and MDA-MB-468 cells, 24 h", "description": "as §1, §2"}, "[7]": {"test_system": "STAT1 DNA binding activity", "test": "STAT1 DNA binding activity (STAT1 Transcription Factor Kit)", "assay_type": "cell-based, human", "conditions": "MDA-MB-231 cells; 10 μM, 24 h", "experimental": "as §4"}, "[8]": {"test_system": "STAT3 phosphorylation", "test": "STAT3 phosphorylation by immunoblot in cancer cells with persistently activated STAT3", "assay_type": "cell-based, human", "conditions": "24 h", "description": "as §1, §2, §3, §2"}, "[9]": {"test_system": "normal human pancreatic duct epithelial cells, normal human lung fibroblasts, normal human mammary epithelial cells", "test": "Apoptosis (cleaved caspase-3 immunoblot) in normal human cells", "conditions": "HPDE, HMEC and normal human lung fibroblasts; 24 h", "description": "as §2"}, "[10]": {"molecular_target": "JAK2 kinase (Homo sapiens, UniProt O60674)", "sequence (O60674 whole entry)": "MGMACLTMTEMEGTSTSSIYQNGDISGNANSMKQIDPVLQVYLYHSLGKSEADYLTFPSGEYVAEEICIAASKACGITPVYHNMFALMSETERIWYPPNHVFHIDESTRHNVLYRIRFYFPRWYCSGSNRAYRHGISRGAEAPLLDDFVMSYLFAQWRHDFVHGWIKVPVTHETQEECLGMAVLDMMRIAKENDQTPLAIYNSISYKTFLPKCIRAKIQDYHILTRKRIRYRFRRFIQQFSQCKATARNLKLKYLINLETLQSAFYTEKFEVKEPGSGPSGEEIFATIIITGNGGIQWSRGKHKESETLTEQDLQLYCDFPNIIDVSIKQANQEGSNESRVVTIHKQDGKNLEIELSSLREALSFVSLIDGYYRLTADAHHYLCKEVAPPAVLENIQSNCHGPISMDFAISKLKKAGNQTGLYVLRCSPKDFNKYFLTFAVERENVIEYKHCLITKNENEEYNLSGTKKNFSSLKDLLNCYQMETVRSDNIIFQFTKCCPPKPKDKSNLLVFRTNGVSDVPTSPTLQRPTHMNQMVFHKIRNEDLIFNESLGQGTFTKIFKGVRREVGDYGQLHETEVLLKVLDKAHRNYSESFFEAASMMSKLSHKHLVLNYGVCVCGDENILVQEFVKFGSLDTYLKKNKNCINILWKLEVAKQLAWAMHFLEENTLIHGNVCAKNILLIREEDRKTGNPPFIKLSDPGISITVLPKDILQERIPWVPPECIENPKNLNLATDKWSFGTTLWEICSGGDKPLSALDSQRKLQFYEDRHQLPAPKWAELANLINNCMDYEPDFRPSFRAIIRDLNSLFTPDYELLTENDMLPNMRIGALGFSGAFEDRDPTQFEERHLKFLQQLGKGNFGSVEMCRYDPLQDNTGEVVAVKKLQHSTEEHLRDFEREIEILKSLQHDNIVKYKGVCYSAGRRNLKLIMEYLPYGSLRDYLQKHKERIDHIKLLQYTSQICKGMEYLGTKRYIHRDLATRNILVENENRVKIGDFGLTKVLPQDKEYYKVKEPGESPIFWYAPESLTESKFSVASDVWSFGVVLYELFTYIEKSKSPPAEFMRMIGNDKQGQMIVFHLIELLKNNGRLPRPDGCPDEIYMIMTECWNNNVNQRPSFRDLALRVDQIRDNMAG", "test": "JAK2 kinase assay (HTScan JAK2 kinase assay kit)", "conditions": "at 10 μM", "quoted_text": "JAK2 kinase assay was performed using a HTScan JAK2 kinase assay kit."}}}
{"smiles": "COc1ccc(/C=C/C(=O)C(C)(C)C(=O)/C=C/c2ccc(OC)c(OC)c2)cc1OC", "note": "[FLLL31]", "values": [{"measurement": "down-regulation of cyclin D1", "setting": "[1]", "value": "down-regulation of cyclin D1"}, {"measurement": "inhibition of STAT3 DNA binding activity", "setting": "[2]", "value": "statistically significant inhibition"}, {"measurement": "potency of STAT3 DNA binding inhibition relative to curcumin", "setting": "[2]", "value": "significantly more potent than curcumin"}, {"measurement": "inhibition of STAT3 dependent luciferase activity", "setting": "[3]", "value": "dose-dependent inhibition"}, {"measurement": "IC50, anti-proliferative activity", "setting": "[4]; SUM-159, ZR-75-1, BXPC-3, HPAC, PANC-1, SW1990, U373, U266", "value": "submicromolar"}, {"measurement": "anti-proliferative potency relative to WP1066, Stattic, S31-201, SD1029 and AG490", "setting": "[4]; panel of eight cancer cell lines", "value": "more potent than the other inhibitors"}, {"measurement": "induction of apoptosis (cleavages of caspase-3)", "setting": "[5]; MDA-MB-231 and MDA-MB-468 breast cancer cells", "value": "induction of apoptosis"}, {"measurement": "induction of apoptosis (cleaved caspase-3)", "setting": "[5]; PANC-1, BXPC-3 and SK-BR-3 cells, 5 or 10 μM", "value": "induce apoptosis"}, {"measurement": "effects on ERK1/2, PKC-δ, mTOR, p70S6K, and AKT phosphorylation", "setting": "[6]", "value": "little effects"}, {"measurement": "selectivity: STAT3 versus STAT1 DNA binding activity", "setting": "[7]", "value": "inhibit STAT3 but not STAT1 DNA binding activity"}, {"measurement": "inhibition of STAT3 phosphorylation", "setting": "[8]; MDA-MB-231 breast cancer cells, 2.5 and 5 μM", "value": "inhibited STAT3 phosphorylation"}, {"measurement": "inhibition of STAT3 phosphorylation", "setting": "[8]; MDA-MB-468 breast cancer cells, 2.5, 5 and 10 μM", "value": "inhibited STAT3 phosphorylation"}, {"measurement": "induction of apoptosis in normal human cells", "setting": "[9]", "value": "no apoptosis induction"}]}
{"smiles": "C[C@H](NC(=O)/C(C#N)=C/c1cccc(Br)n1)c1ccccc1", "note": "[WP1066, reference compound]", "values": [{"measurement": "induction of apoptosis", "setting": "[5]; U373 cells, 5 μM", "value": "induce apoptosis"}, {"measurement": "inhibition of STAT3 phosphorylation", "setting": "[8]; U373 human glioblastoma cells, 5 μM", "value": "inhibit STAT3 phosphorylation"}]}
{"smiles": "COc1cc(C=CC(=O)CC(=O)C=Cc2ccc(O)c(OC)c2)ccc1O", "note": "[curcumin, 1,7-bis(4-hydroxy-3-methoxyphenyl)-1,6-heptadien-3,5-dione, reference compound]", "values": [{"measurement": "inhibition of STAT3 DNA binding activity", "setting": "[2]", "value": "inhibit STAT3 DNA binding activity"}, {"measurement": "JAK2 inhibition", "setting": "[10]", "value": "did not show any JAK2 inhibition"}]}
